Consider 54 compounds from patent publication US8518980B2, “Treatment of Duchenne muscular dystrophy” (Summit Corporation PLC, priority 2006, dated 2013).

Structures can show the parent of a compound that is named as a salt.

One test relates to Utrophin A promoter linked to a luciferase reporter gene (H2K/mdx/Utro A reporter cell line). The experiment in a line: Luciferase reporter assay (murine H2K cells). Conditions: Mus musculus, H2K mdx. For orientation: Reporter assays use an easily measured gene product as a stand-in for the process of interest.
Take `CCc1nc2cc(S(=O)(=O)CC)ccc2o1` [Example 572, 2-ethyl-5-(ethylsulfonyl)benzo[d]oxazole]: the activity at 10 µM is under 200%. The same measure, in the same setting: to `Oc1ccccc1-c1nc2ccccc2s1` [Example 483, 2-(benzo[d]thiazol-2-yl)phenol] belongs under 200%. Still for that read-out and setting: to `O=C(Nc1ccc(-c2nc3ccccc3[nH]2)cc1)C1CCCO1` (stereo not drawn) [Example 587, N-(4-(1H-Benzo[d]imidazol-2-yl)phenyl)tetrahydrofuran-2-carboxamide] belongs 301 to 400%. Still for that read-out and setting: to `O=C(CSc1nc[nH]n1)Nc1ccc(-c2nc3ccccc3s2)cc1` [Example 685, 2-(1H-1,2,4-triazol-3-ylthio)-N-(4-(benzo[d]thiazol-2-yl)phenyl)acetamide] belongs 201 to 300%; to `O=[N+]([O-])c1cc(-c2nc3ccccc3s2)ccc1Cl` [Example 523, 2-(4-chloro-3-nitrophenyl)benzo[d]thiazole], under 200%.

For `Cc1cc2oc(C(=O)NCc3ccncc3)c(C)c2cc1C` [Example 656, 3,5,6-trimethyl-N-(pyridin-4-ylmethyl)benzofuran-2-carboxamide], the activity at 10 µM is 301 to 400%. Same read-out and setting: under `CCc1ccc(-c2nc3cc(N)ccc3o2)cc1` [Example 481, 2-(4-ethylphenyl)benzo[d]oxazol-5-amine] stands 201 to 300%; under `Cc1cc(C)c2oc(-c3ccc(Cl)c(N)c3)nc2c1` [Example 627, 2-chloro-5-(5,7-dimethylbenzo[d]oxazol-2-yl)aniline], over 401%; under `Cc1ccc(-c2nc3ccccc3n2C)cc1` [Example 588, 1-Methyl-2-p-tolyl-1H-benzo[d]imidazole], 301 to 400%. Consider `Cc1ccc(NC(=O)C(=O)c2c[nH]c3ccccc23)c(Br)c1` [Example 663, N-(2-bromo-4-methylphenyl)-2-(1H-indol-3-yl)-2-oxoacetamide], for which the activity at 10 µM is 301 to 400%.

For the compound `Oc1ccc2nc(-c3ccc(Cl)cc3)oc2c1` [Example 579, 2-(4-chlorophenyl)benzo[d]oxazol-6-ol], the activity at 10 µM is over 401%. Still for that read-out and setting: to `Oc1cccc(-c2nc3ccccc3s2)c1` [Example 594, 3-(Benzo[d]thiazol-2-yl)phenol] belongs over 401%; to `O=C(Nc1nc2ccccc2[nH]1)c1cccc(Cl)c1` [Example 679, N-(1H-benzo[d]imidazol-2-yl)-3-chlorobenzamide], 201 to 300%; to `Nc1c(C(=O)Nc2ccc(F)cc2)sc2nc3c(cc12)CCC3` [Example 628, 3-amino-N-(4-fluorophenyl)-6,7-dihydro-5H-cyclopenta[e]thieno[2,3-b]pyridine-2-carboxamide], over 401%. The same measure, in the same setting: to `O=C(Nc1nc2ccccc2s1)c1ccccc1Br` [Example 616, N-(benzo[d]thiazol-2-yl)-2-bromobenzamide] belongs over 401%; to `O=C(Nc1nc2ccc(F)cc2s1)c1cccs1` [Example 658, N-(6-fluorobenzo[d]thiazol-2-yl)thiophene-2-carboxamide], 301 to 400%; to `Cn1c(NC(=N)c2ccccc2)nc2ccccc21` [Example 669, N-(1-methyl-1H-benzo[d]imidazol-2-yl)benzimidamide], 201 to 300%. The same measure, in the same setting: to `Cc1ccc2nc(-c3ccc(NC(=O)CSc4nnc[nH]4)cc3)sc2c1` [Example 654, 2-(4H-1,2,4-triazol-3-ylthio)-N-(4-(6-methylbenzo[d]thiazol-2-yl)phenyl)acetamide] belongs 301 to 400%; to `COc1ccc(-c2nc3ccccc3[nH]2)cc1` [Example 470, 2-(4-methoxyphenyl)-1H-benzo[d]imidazole], 201 to 300%; to `COc1ccc(-c2nc3cc(N)ccc3[nH]2)cc1` [Example 535, 2-(4-methoxyphenyl)-1H-benzo[d]imidazol-5-amine], 201 to 300%. For `O=C(Nc1ccc(-c2nc3ccccc3s2)cc1)C1CCCO1` (stereo not drawn) [Example 680, N-(4-(benzo[d]thiazol-2-yl)phenyl)tetrahydrofuran-2-carboxamide], the activity at 10 µM fell in the range of 201 to 300%. `c1ccc(-c2ccc(-c3nc4ccccc4[nH]3)cc2)cc1` [Example 558, 2-(biphenyl-4-yl)-1H-benzo[d]imidazole]: the activity at 10 µM is under 200%. Same read-out and setting: under `O=C(NCCc1ccccc1)c1cc2ccccc2o1` [Example 665, N-phenethylbenzofuran-2-carboxamide] stands 201 to 300%; under `CC(=O)Nc1cccc(-c2nc3ccccc3s2)c1` [Example 513, N-(3-(benzo[d]thiazol-2-yl)phenyl)acetamide], under 200%; under `Clc1cccc(-c2nc3ccccc3[nH]2)c1` [Example 514, 2-(3-chlorophenyl)-1H-benzo[d]imidazole], under 200%.

With `O=[N+]([O-])c1ccc2[nH]c(-c3ccco3)nc2c1` [Example 508, 2-(furan-2-yl)-5-nitro-1H-benzo[d]imidazole], the activity at 10 µM is under 200%.

With `COc1ccc(-c2nc3ccccc3s2)cc1O` [Example 596, 5-(Benzo[d]thiazol-2-yl)-2-methoxyphenol], the activity at 10 µM was over 401%. `O=C(Cc1ccccc1)Nc1ccc(-c2nc3ccccc3[nH]2)cc1` [Example 501, N-(4-(1H-benzo[d]imidazol-2-yl)phenyl)-2-phenylacetamide]: the activity at 10 µM was under 200%. On the same count and under the same terms, to `Cc1ccc(-c2nc3cc(N)ccc3o2)c(Cl)c1` [Example 527, 2-(2-chloro-4-methylphenyl)benzo[d]oxazol-5-amine] belongs 201 to 300%. Still for that read-out and setting: under `Cc1cc(C)cc(-c2nc3cc(N)ccc3o2)c1` [Example 482, 2-(3,5-dimethylphenyl)benzo[d]oxazol-5-amine] stands under 200%; under `O=[N+]([O-])c1ccc(-c2nc3ccccc3o2)cc1` [Example 477, 2-(4-nitrophenyl)benzo[d]oxazole], under 200%. The same measure, in the same setting: to `c1ccc(NNc2nc3ccccc3s2)cc1` [Example 552, 2-(2-phenylhydrazinyl)benzo[d]thiazole] belongs under 200%; to `Nc1ccc(O)c(-c2nc3cc(N)ccc3s2)c1` [Example 550, 4-amino-2-(5-aminobenzo[d]thiazol-2-yl)phenol], under 200%; to `Cn1c(-c2ccc(Cl)cc2)nc2ccccc21` [Example 541, 2-(4-chlorophenyl)-1-methyl-1H-benzo[d]imidazole], 201 to 300%. For `c1csc(-c2nc3cc4ccccc4cc3[nH]2)c1` [Example 561, 2-(thiophen-2-yl)-1H-naphtho[2,3-d]imidazole], the activity at 10 µM was in the range of 301 to 400%. Still for that read-out and setting: under `CC(=O)Nc1ccc(-c2nc3ccccc3o2)cc1` [Example 589, N-(4-(Benzo[d]oxazol-2-yl)phenyl)acetamide] stands 301 to 400%; under `COc1ccc(-c2nc3ccccc3o2)cc1N` [Example 619, 5-(benzo[d]oxazol-2-yl)-2-methoxyaniline], over 401%; under `COc1ccc(-c2nc3ccc([N+](=O)[O-])cc3o2)cc1` [Example 584, 2-(4-Methoxyphenyl)-6-nitrobenzo[d]oxazole], 301 to 400%. Still for that read-out and setting: under `COc1ccc(-c2nc3cc(N)ccc3o2)cc1OC` [Example 515, 2-(3,4-dimethoxyphenyl)benzo[d]oxazol-5-amine] stands 201 to 300%; under `Nc1ccc2[nH]c(-c3ccco3)nc2c1` [Example 510, 2-(furan-2-yl)-1H-benzo[d]imidazol-5-amine dihydrochloride], under 200%. Still for that read-out and setting: under `Cn1c(COc2ccccc2)nc2ccccc21` [Example 474, 1-methyl-2-(phenoxymethyl)-1H-benzo[d]imidazole] stands under 200%; under `Cc1ccc2sc(-c3ccc(NC(=O)c4cc(-n5cnnc5)ccc4Cl)cc3)nc2c1` [Example 688, 2-chloro-N-(4-(5-methylbenzo[d]thiazol-2-yl)phenyl)-5-(4H-1,2,4-triazol-4-yl)benzamide], 201 to 300%. `Nc1ccc2oc(-c3ccc(O)cc3)nc2c1` [Example 496, 4-(5-aminobenzo[d]oxazol-2-yl)phenol]: the activity at 10 µM was in the range of 201 to 300%. On the same count and under the same terms, under `Nc1cccc(-c2nc3ccccc3s2)c1` [Example 602, 3-(Benzo[d]thiazol-2-yl)aniline] stands 301 to 400%; under `Cc1ccc(-c2nc3ccccc3[nH]2)cc1N` [Example 620, 5-(1H-benzo[d]imidazol-2-yl)-2-methylaniline], over 401%. On to `COc1ccc(-c2nc3ccccc3s2)cc1NC(C)=O` [Example 542, N-(5-(benzo[d]thiazol-2-yl)-2-methoxyphenyl)acetamide], for which the activity at 10 µM fell in the range of 201 to 300%. For `Cc1ccc(-c2nc3ccccc3[nH]2)cc1` [Example 613, 2-p-Tolyl-1H-benzo[d]imidazole], the activity at 10 µM is 301 to 400%. For `Cc1ccc2oc(-c3ccc([N+](=O)[O-])cc3)nc2c1` [Example 505, 5-methyl-2-(4-nitrophenyl)benzo[d]oxazole], the activity at 10 µM lay within 201 to 300%. Consider `Nc1ccc2oc(-c3ccc(Cl)cc3)nc2c1` [Example 488, 2-(4-chlorophenyl)benzo[d]oxazol-5-amine], for which the activity at 10 µM was in the range of 201 to 300%. On the same count and under the same terms, under `CCS(=O)(=O)c1ccc2ocnc2c1` [Example 573, 5-(ethylsulfonyl)benzo[d]oxazole] stands under 200%; under `COc1ccc(OCc2nc3ccccc3n2C)cc1` [Example 528, 2-((4-methoxyphenoxy)methyl)-1-methyl-1H-benzo[d]imidazole], 201 to 300%; under `Fc1ccccc1-c1nc2ccccc2[nH]1` [Example 507, 2-(2-fluorophenyl)-1H-benzo[d]imidazole], 201 to 300%. The same measure, in the same setting: to `Cc1cccc(NC(=O)c2sc3nc(C)cc(C)c3c2N)c1` [Example 650, 3-amino-4,6-dimethyl-N-m-tolylthieno[2,3-b]pyridine-2-carboxamide] belongs 301 to 400%.

Still in this test, the particulars now being: Table 1; luciferase level relative to control; final concentration of 10 μM.
In the case of `CCN(CC)S(=O)(=O)c1ccc2oc(-c3ccc(Cl)cc3)nc2c1` [Example 439, 2-(4′-chlorophenyl)-5-(N,N-diethylsulfonamidyl)-benzoxazole], the Activity result is given as “+ (Up to 200% relative to control)”.
